Where a name gives a salt, the structure may show the parent alone. Read-outs that look alike come from different tables or passages of the source.
How the values were obtained:
[1] = molecular target: ER (endogenous, MCF7 cells) (Homo sapiens (Human), UniProt P03372); assay: ER transcription assay (MCF7 cells), ERE-luciferase reporter; format: cell-based; settings: read-out: MCF7 IC50
Excerpt: ER Transcription Assay (MCF7 Cells)
The ER transcription assay is a reporter assay that is based on the ability of ER to induce transcription from a luciferase reporter gene containing estrogen response elements (EREs) in the promoter/enhancer region. When the reporter gene is transfected in MCF7 cells (containing endogenous ER), transcription is reflected by the level of luciferase expression.
A day before transfection, cells are split into a T75 flask at a cell density of 300,000 cells/mL (10 mL total) and allowed to attach overnight in a humidified CO2 incubator at 37° C.
Approximately 20 ug DNA is mixed in OptiMEM (Invitrogen) to a total volume of 650 μL. Following incubation, the OptiMEM-DNA mixture is added to the OptiMEM-Lipofectin mix and incubated for 15 minutes at 37° C. The DNA-Lipofectin mixture is then added directly to the T75 flask and the flask is returned to the incubator.
Normally, DMSO (used as a vehicle) is included to achieve a final concentration of 0.1% when added to the cells. Transfected cells are trypsinized, resuspended in DMEM/F12/10% charcoal-stripped serum and added to the 96-well plate at 25,000 cells/well in 90 μL of media. The plate is then returned to the incubator for 24 hours.
After incubation with compounds for 24 hours, Firefly and Renilla luciferase activities are measured to determine ER transcriptional activity. Media is removed from 96-well plates by decanting and blotting on paper towels.
One second total read time after a one second delay.
One second total read time after one second delay. If Firefly luciferase signal is high, Renilla assay must be done an hour after the Firefly assay due to incomplete squelching of Firefly signal.
(§1) The column titled MCF7 IC50 reports the inflection point of the inhibition of transcription in MCF7 cells as described above. Percentage ERα remaining reports the remaining ERα protein measured at 10 μM concentration of the ligand as described above. The column ERα IC50 reports the inflection point of the degradation in response to the ligand concentration.

[2] = molecular target: ERα (Homo sapiens (Human), UniProt P03372); assay: ERα degradation (MCF7 cells), in-cell Western; format: cell-based; settings: for IC50: inflection point of the degradation in response to ligand concentration
Procedure: ERα Degradation (MCF7 Cells)
as §1

[3] = inflection point of the inhibition of transcription in MCF7 cells, 0.1 nM estradiol, 24 hours
[4] = remaining ERα protein at 10 μM ligand, MCF7 cells, relative to DMSO control

Sequence of ERα (P03372 whole entry): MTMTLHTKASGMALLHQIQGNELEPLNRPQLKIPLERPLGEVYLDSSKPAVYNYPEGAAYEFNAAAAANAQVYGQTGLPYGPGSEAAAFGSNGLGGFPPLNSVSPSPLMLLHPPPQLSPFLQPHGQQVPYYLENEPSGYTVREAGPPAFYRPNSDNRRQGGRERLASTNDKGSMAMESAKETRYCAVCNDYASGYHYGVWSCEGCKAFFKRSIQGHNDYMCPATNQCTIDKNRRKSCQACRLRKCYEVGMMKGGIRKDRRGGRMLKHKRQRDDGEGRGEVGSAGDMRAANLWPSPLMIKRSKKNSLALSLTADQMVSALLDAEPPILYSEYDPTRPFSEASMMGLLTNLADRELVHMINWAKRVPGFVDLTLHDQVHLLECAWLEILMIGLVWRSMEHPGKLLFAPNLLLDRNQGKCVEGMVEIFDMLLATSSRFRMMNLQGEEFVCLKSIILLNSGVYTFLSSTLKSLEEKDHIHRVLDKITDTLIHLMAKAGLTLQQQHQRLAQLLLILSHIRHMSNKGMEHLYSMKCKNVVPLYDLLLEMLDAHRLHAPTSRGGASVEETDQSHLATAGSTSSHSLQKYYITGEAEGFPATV
Sequence of ER (endogenous, MCF7 cells) (P03372 whole entry): as above

| Structure (SMILES) | IC50 [1, 3] [nM] | IC50 ([2]; MCF7 cells) [nM] | % ERα remaining [2, 4] [%] | IC50 [1] [nM] | % ERα remaining [2] [%] |
| --- | --- | --- | --- | --- | --- |
| [C-]#[N+]c1ccccc1-c1sc2cc(O)ccc2c1Oc1ccc(/C=C/C(=O)O)cc1 [Example 24, (E)-3-(4-((6-hydroxy-2-(2-isocyanophenyl)-benzo[b]thiophen-3-yl)oxy)phenyl)acrylic acid] | 2580 | 33 | 22 |  |  |
| COC(=O)/C=C/c1ccc(Oc2c(-c3ccc(O)c(C)c3)sc3cc(O)ccc23)cc1 [Example 41, (E)-methyl 3-(4-((6-hydroxy-2-(4-hydroxy-3-methylphenyl)-benzo[b]thiophen-3-yl)oxy)phenyl)acrylate] | 10000 |  | 32 |  |  |
| CCOC(=O)/C=C/c1ccc(Oc2c(-c3ccc(O)cc3)sc3cc(O)ccc23)cc1OC [Example 43, (E)-ethyl 3-(4-((6-hydroxy-2-(4-hydroxyphenyl)benzo[b]thiophen-3-yl)oxy)-2-methoxyphenyl)acrylate] | 10000 |  | 41 |  |  |
| COC(=O)/C=C/c1ccc(Oc2c(-c3ccccc3)sc3cc(O)ccc23)cc1 [Example 44, (E)-methyl 3-(4-((6-hydroxy-2-phenylbenzo[b]thiophen-3-yl)oxy)phenyl)-acrylate] | 10000 |  | 25 |  |  |
| COC(=O)/C=C/c1ccc(Oc2c(-c3ccccc3C(C)C)sc3cc(O)ccc23)cc1 [Example 45, (E)-methyl 3-(4-((6-hydroxy-2-(2-isopropylphenyl)benzo[b]thiophen-3-yl)oxy)phenyl)acrylate] | 23 |  | 30 |  |  |
| CNC(=O)/C=C/c1ccc(Oc2c(-c3ccc(O)c(F)c3)sc3cc(O)ccc23)cc1 [Example 69, (E)-3-(4-((2-(3-fluoro-4-hydroxyphenyl)-6-hydroxybenzo[b]thiophen-3-yl)oxy)phenyl)-N-methylacrylamide] | 185 | 24 | 26 |  |  |
| CNC(=O)/C=C/c1ccc(Oc2c(-c3ccc(C(F)(F)F)cc3)sc3cc(O)ccc23)cc1 [Example 70, (E)-3-(4-((6-hydroxy-2-(4-(trifluoromethyl)phenyl)benzo[b]thiophen-3-yl)oxy)phenyl)-N-methylacrylamide] | 41 | 9 | 32 |  |  |
| CNC(=O)/C=C/c1ccc(Oc2c(-c3ccc(O)cc3)sc3cc(O)ccc23)cn1 [Example 71, (E)-3-(5-((6-hydroxy-2-(4-hydroxyphenyl)benzo[b]thiophen-3-yl)oxy)pyridin-2-yl)-N-methylacrylamide] | 269 |  | 41 |  |  |
| Oc1ccc(-c2sc3cc(O)ccc3c2Oc2ccc(/C=C/c3c[nH]cn3)cc2)cc1 [Example 72, (E)-3-(4-(2-(1H-imidazol-4-yl)vinyl)phenoxy)-2-(4-hydroxyphenyl)benzo[b]thiophen-6-ol] | 53 | 11 | 39 |  |  |
| Cn1cnc(/C=C/c2ccc(Oc3c(-c4ccc(O)cc4)sc4cc(O)ccc34)cc2)c1 [Example 73, (E)-2-(4-hydroxyphenyl)-3-(4-(2-(1-methyl-1H-imidazol-4-yl)vinyl)phenoxy)benzo[b]thiophen-6-ol] | 125 | 17 | 47 |  |  |
| CCCn1cnc(/C=C/c2ccc(Oc3c(-c4ccc(O)cc4)sc4cc(O)ccc34)cc2)c1 [Example 74, (E)-2-(4-hydroxyphenyl)-3-(4-(2-(1-propyl-1H-imidazol-4-yl)vinyl)phenoxy)benzo [b]thiophen-6-ol] | 58 | 10 | 32 |  |  |
| CN(C)Cc1ccccc1-c1sc2cc(O)ccc2c1Oc1ccc(/C=C/C(=O)O)cc1 [Example 77, (E)-3-(4-((2-(2-((dimethylamino)methyl)phenyl)-6-hydroxybenzo[b]thiophen-3-yl)oxy)phenyl)acrylic acid] | 44 | 1.4 | 15 |  |  |
| CC(=O)/C=C/c1ccc(Oc2c(-c3ccccc3C(C)C)sc3cc(O)ccc23)cc1 [Example 78, (E)-4-(4-((6-hydroxy-2-(2-isopropylphenyl)benzo[b]thiophen-3-yl)oxy)phenyl)but-3-en-2-one] | 6 |  | 72 |  |  |
| O=C(O)/C=C/c1ccc(Oc2c(-c3ccccc3C(F)F)sc3cc(O)ccc23)cc1 [Example 79, (E)-3-(4-((2-(2-(difluoromethyl)phenyl)-6-hydroxybenzo [b]thiophen-3-yl)oxy)phenyl)acrylic acid] | 52 | 4.2 | 17 |  |  |
| CC(C)OC(=O)/C=C/c1ccc(Oc2c(-c3ccccc3C(C)C)sc3cc(O)ccc23)cc1 [Example 81, (E)-isopropyl 3-(4-((6-hydroxy-2-(2-isopropylphenyl)benzo[b]thiophen-3-yl)oxy)phenyl)acrylate] | 320 |  | 29 |  |  |
| CC(=O)Oc1ccc2c(Oc3ccc(/C=C/C(=O)O)cc3)c(-c3ccccc3C(C)C)sc2c1 [Example 82, (E)-3-(4-((6-acetoxy-2-(2-isopropylphenyl)benzo[b]thiophen-3-yl)oxy)phenyl)acrylic acid] | 11 |  | 21 |  |  |
| COCCC(=O)Oc1ccc2c(Oc3ccc(/C=C/C(=O)O)cc3)c(-c3ccccc3C(C)C)sc2c1 [Example 83, (E)-3-(4-((2-(2-isopropylphenyl)-6-((3-methoxypropanoyl)oxy)benzo[b]thiophen-3-yl)oxy)phenyl)acrylic acid] | 15 |  | 13 |  |  |
| CC(C)c1ccccc1-c1sc2cc(OCN3C(=O)c4ccccc4S3(=O)=O)ccc2c1Oc1ccc(/C=C/C(=O)O)cc1 [Example 84, (E)-3-(4-((6-((1,1-dioxido-3-oxobenzo [d]isothiazol-2(3H)-yl)methoxy)-2-(2-isopropylphenyl)benzo[b]thiophen-3-yl)oxy)phenyl)acrylic acid] | 44 |  | 12 |  |  |
| CC(C)c1ccccc1-c1sc2cc(OC(=O)[C@@H](N)C(C)C)ccc2c1Oc1ccc(/C=C/C(=O)O)cc1 [Example 85, (S,E)-3-(4-((6-((2-amino-3-methylbutanoyl)oxy)-2-(2-isopropylphenyl)benzo [b]thiophen-3-yl)oxy)phenyl)acrylic acid hydrochloride] |  |  |  | 7 | 12 |
| CCC(C)c1ccccc1-c1sc2cc(O)ccc2c1Oc1ccc(/C=C/C(=O)O)cc1 (centres unmarked) [Example 86, (E)-3-(4-((2-(2-(sec-butyl)phenyl)-6-hydroxybenzo[b]thiophen-3-yl)oxy)phenyl)acrylic acid] | 7 | 0.2 | 12 |  |  |
| O=C(O)/C=C/c1ccc(Oc2c(-c3ccccc3C3CCCC3)sc3cc(O)ccc23)cc1 [Example 87, (E)-3-(4-((2-(2-cyclopentylphenyl)-6-hydroxybenzo[b]thiophen-3-yl)oxy)phenyl)acrylic acid] | 14 | 0.4 | 15 |  |  |
| O=C(O)/C=C/c1ccc(Oc2c(-c3ccccc3C3CCC3)sc3cc(O)ccc23)cc1 [Example 89, (E)-3-(4-((2-(2-cyclobutylphenyl)-6-hydroxybenzo[b]thiophen-3-yl)oxy)phenyl)acrylic acid] | 19 | 0.5 | 18 |  |  |
| O=C(O)/C=C/c1ccc(Oc2c(-c3cccc(F)c3C(F)(F)F)sc3cc(O)ccc23)cc1 [Example 90, (E)-3-(4-((2-(3-fluoro-2-(trifluoromethyl)phenyl)-6-hydroxybenzo[b]thiophen-3-yl)oxy)phenyl)acrylic acid] | 26 | 1.2 | 15 |  |  |
| COc1ccc(-c2sc3cc(O)ccc3c2Oc2ccc(/C=C/C(=O)O)cc2)c(C(F)(F)F)n1 [Example 91, (E)-3-(4-((6-hydroxy-2-(6-methoxy-2-(trifluoromethyl)pyridin-3-yl)benzo[b]thiophen-3-yl)oxy)phenyl)acrylic acid] | 23 |  | 16 |  |  |
| O=C(O)/C=C/c1ccc(Oc2c(-c3ccccc3CN3CCCC3)sc3cc(O)ccc23)cc1 [Example 92, (E)-3-(4-((6-hydroxy-2-(2-(pyrrolidin-1-ylmethyl)phenyl)benzo [b]thiophen-3-yl)oxy)phenyl)acrylic acid] | 29 |  | 16 |  |  |
| CC(C)c1ccccc1-c1sc2cc(O)ccc2c1Oc1ccc(CCC(=O)O)cc1 [Example 93, 3-(4-((6-hydroxy-2-(2-isopropylphenyl)benzo [b]thiophen-3-yl)oxy)phenyl)propanoic acid] | 72 | 1.6 | 25 |  |  |

Source: patent publication US10058534B2, “Benzothiophene derivatives and compositions thereof as selective estrogen receptor degraders” (NOVARTIS AG, priority 2013, dated 2018)
